Data published in US9226912B2, “Acetyltanshinone IIA (ATA) as anticancer agent” (Nanyang Technological University, priority 2011, dated 2016).

Legend:
ERα in BT474 cells = molecular target: T1, ERα in BT474 cells (Homo sapiens, UniProt P03372); assay: ERα protein level by Western blotting; format: cell-based; details: 6 μM ATA or 1 μM fulvestrant
T1 construct: endogenous in cells; host or cells: BT474 human breast cancer cells
Method: Cells were treated with 6 μM ATA or 1 μM fulvestrant for indicated times and analyzed by Western blotting.

[1] = system: Bax and cytochrome c in MDA-MB-435 cells; assay: Bax translocation and cytochrome c release, cell fractionation Western blot and immunofluorescence; format: cell-based, human; details: 20 μM PG, 5 μM ATA, 24 h
Method: The concentration of ATA and PG were 5 μM and 20 μM, respectively. […] Scale bar=10 μm.
The value of CY/MT represents the ratio of integrated band intensity of cytosol fraction (CY) over corresponding integrated band intensity of mitochondrial fraction (MT). The ratio was normalized by the control group. Two proteins were used as internal markers to judge the quality of cell fractionation experiment: Cox IV for mitochondria and β-tubulin mainly for cytosol.
The subcellular localization changes of Bax and cytochrome c during ATA-induced apoptosis were first examined using immunofluorescence staining.
(§1) It was further tested, whether PG could prevent ROS generation after ATA treatment.

ROS in MDA-MB-435 cells = assay: ROS generation and its prevention by PG; format: cell-based, human; details: pre-treating cells with 20 μM PG
Method: (A) PG prevented ATA-induced cell death. Three concentrations of PG were tested for their protective effects on ATA-induced cell death. The cell viability was measured by SRB assay. (* p<0.01). (B) PG protected ROS generation caused by ATA treatment. […] All the experiments were performed at least three times. The results presented in this figure are the average of three experiments. Error bar represents standard deviation. Scale bar=20 μm.
as §1

MCF-7/HER2 cells = assay: Growth inhibition of HER2 over-expressing cells at 72 h; format: cell-based; details: paclitaxel 1×10^−3 μM to 10 μM; ATA 0.78 μM to 6.25 μM
Source text: The efficacy of ATA on MCF-7 cells with over-expressed HER2 protein was investigated.

MCF-7 cells = assay: Combinatorial effect of ATA with paclitaxel, MTT assay; format: cell-based; details: Homo sapiens, MCF7, paclitaxel alone at 1 nM, read-out: cell growth inhibition rate
Method: The effect was determined by measuring the rates of cell growth inhibition using MTT assay. (* p<0.01, compared with cells treated with either paclitaxel alone or ATA alone).
The inventors of the present invention have shown for the first time that ATA can increase the cytotoxic effect of paclitaxel. In the tests (FIG. 16) with five concentrations of ATA at 10, 5, 2.5, 1.25, 0.625 μM and five concentrations of paclitaxel at 1000, 100, 10, 1, 0.1 nM were used.

ESR1 mRNA in MCF-7 cells = assay: Real-time PCR of ESR1 mRNA level; details: 100 pM estrogen plus 6 μM compound, 24 h
Method: MCF-7 cells cultured in the charcoal-stripped medium were used as control for the 0 h sample.

[2] = system: GREB1 mRNA in MCF-7 cells; assay: Real-time PCR of GREB1 mRNA level; details: 100 pM estrogen plus 6 μM compound, 24 h, normal medium
Method: In order to do so, the mRNA level of a non-ER regulated gene GAPDH was measured and used as a reference. MCF-7 cells cultured in the charcoal-stripped medium were used as a control.

HeLa cells = assay: ATA-induced cell death by cell counting under a microscope; format: cell-based; details: 2 μM z-VAD-fmk pre-treatment 2 h, then 10 or 20 μM ATA, 24 h and 48 h
Method: HeLa cells were treated with 10 μM ATA for 12, 24, 36, and 48 h. The β-tubulin protein was probed as a loading control. […] HeLa cells were pre-treated with 2 μM pan-caspase inhibitor (z-VAD-fmk) for 2 h before ATA addition. Then 10 μM or 20 μM ATA were added. After 24 h and 48 h treatment, the number of died cells was counted under a microscope. (* p<0.01, compared with cells treated with ATA only). Control: cells without any treatment.
Overexpression of Bcl-2 inhibited ATA-induced cell death. HeLa cells transfected with either yellow fluorescent protein (YFP) (vector control) or YFP-Bcl-2 (Bcl-2) were treated with ATA at 10 or 20 μM. The percentage of cell death from YFP-positive cells was determined by cell counting under a fluorescence microscope. (* p<0.01, compared with vector control groups).
The inventors of the present invention have shown for the first time that ATA can activate the apoptotic pathway in cancer cells. […]
HeLa cells transfected with YFP-Bcl-2 or YFP only were treated with 10 μM or 20 μM ATA. After 24 h or 48 h treatment, the percentage of cell death in each sample was calculated by counting the numbers of fluorescence-positive cells either live (attached with a normal cell morphology) or dead (detached with a shrunk morphology) under a fluorescence microscope. […]

T1 sequence (P03372 whole entry): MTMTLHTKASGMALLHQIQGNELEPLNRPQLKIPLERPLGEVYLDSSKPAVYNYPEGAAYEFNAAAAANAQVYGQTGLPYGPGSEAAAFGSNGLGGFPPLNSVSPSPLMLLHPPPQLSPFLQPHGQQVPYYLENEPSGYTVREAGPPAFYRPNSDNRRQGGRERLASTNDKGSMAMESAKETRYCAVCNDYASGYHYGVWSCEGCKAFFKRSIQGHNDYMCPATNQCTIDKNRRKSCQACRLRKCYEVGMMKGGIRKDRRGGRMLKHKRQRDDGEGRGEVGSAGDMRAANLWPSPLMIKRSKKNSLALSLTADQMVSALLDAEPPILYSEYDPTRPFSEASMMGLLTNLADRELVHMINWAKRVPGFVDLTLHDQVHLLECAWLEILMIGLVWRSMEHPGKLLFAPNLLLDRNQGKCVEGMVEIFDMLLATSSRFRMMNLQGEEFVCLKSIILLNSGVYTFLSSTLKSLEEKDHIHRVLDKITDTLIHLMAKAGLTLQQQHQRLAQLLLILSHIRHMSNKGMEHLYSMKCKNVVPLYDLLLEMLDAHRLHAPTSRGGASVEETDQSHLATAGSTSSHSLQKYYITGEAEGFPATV

Molecule: C[C@]12CC[C@@H]3c4ccc(O)cc4C[C@@H](CCCCCCCCC[S+]([O-])CCCC(F)(F)C(F)(F)F)[C@H]3[C@@H]1CC[C@@H]2O (stereo partly drawn) [Fulvestrant, fulvestrant, reference compound]
- level of ERα (ERα in BT474 cells): only reduced ERα

Molecule: CCCOC(=O)c1cc(O)c(O)c(O)c1 [PG, propyl gallate, reference compound]
- effect on Bax translocation and cytochrome c release in ATA-treated cells [1]: could effectively prevent
- effect on ATA-induced ROS level increase (ROS in MDA-MB-435 cells): completely prevented

Molecule: CC(=O)O[C@H]1C(=O)[C@@]2(C)[C@H]([C@H](OC(=O)c3ccccc3)[C@]3(O)C[C@H](OC(=O)[C@H](O)[C@@H](NC(=O)c4ccccc4)c4ccccc4)C(C)=C1C3(C)C)[C@]1(OC(C)=O)CO[C@@H]1C[C@@H]2O [paclitaxel, reference compound]
- sensitivity of MCF-7/HER2 cells compared with MCF-7 cells (MCF-7/HER2 cells): more resistance to paclitaxel than MCF-7 cells
- inhibition at 0.001 µM (MCF-7 cells): ~40%

Molecule: CC/C(=C(\c1ccccc1)c1ccc(OCCN(C)C)cc1)c1ccccc1 [tamoxifen, reference compound]
- level of ESR1 mRNA over control (ESR1 mRNA in MCF-7 cells; charcoal-stripped medium): about 70%
- level of ESR1 mRNA over control (ESR1 mRNA in MCF-7 cells; normal medium): only slightly decreased
- GREB1 level of the control [2]: comparable

Molecule: z-VAD-fmk [reference compound]
- effect on ATA-induced cell death (HeLa cells): could be inhibited
